This note sets out measurements from patent publication US11613531B2, “Inhibitors of RHO associated coiled-coil containing protein kinase” (Kadmon Corporation, LLC, priority 2017, dated 2023).

Assay [1] has as its target Recombinant ROCK2 (amino acids 1-552) (Homo sapiens (Human), UniProt O75116). The experiment in a line: Z′-Lyte kinase assay, ROCK2. Type of assay: biochemical. Conditions: 9 points 2-fold serial dilution. In short, it runs like this: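 IC50s derive from nonlinear curve fits over a 9-point, 2-fold dilution series, with single-point inhibition at 1 μM expressed relative to DMSO. Activity of truncated human ROCK1 (residues 1-535) and ROCK2 (residues 1-552) measured with the Z′-Lyte kinase format.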

For assay [2], the system named is human ACTA2 gene promoter luciferase reporter in NIH3T3 cells. The experiment in a line: NIH3T3 Acta2-promoter driven-luciferase assay. The conditions noted are these: NIH3T3, 24 h, NIH3T3 cells, plus TGFβ1 for 24 hr; read-out: NIH3T3 Acta2-luc, IC50. Type of assay: cell-based. In short, it runs like this:
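NIH3T3 cells stably carrying a human ACTA2 promoter (−1000-1 bp)-luciferase reporter, grown to confluence, treated 24 hr with compound plus TGFβ1 at 9-point serial dilution. Luciferase read after lysis; IC50 by nonlinear regression.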

For assay [3], the system named is UUO-induced renal fibrosis in mice. The experiment in a line: Unilateral ureteral obstruction (UUO)-induced renal fibrosis model. The conditions noted are these: oral 3 mg/kg BID, 6 mg/kg BID and 10 mg/kg QD, Day 10, Masson's trichrome. Format: in vivo. The source says:
FIG. 11a. ROCK inhibitor is active in a mouse model of renal fibrosis. Representative images of kidney sections stained with Masson's trichrome to visualize collagen and fibrosis in mice treated with ROCK inhibitor in the ureteral obstruction (UUO) induced renal fibrosis mouse model.
FIG. 11b. Quantitation of the decrease in the interstitial fibrosis index in the histopathological analysis of the images from ROCK inhibitor and vehicle treated mice in the UUO induced renal fibrosis mouse model.
Unilateral Ureteral Obstruction (UUO)-Induced Renal Fibrosis Model in Mice
Male C57B/L6 mice were anesthetized with Isoflurane and placed in dorsal recumbency and the abdominal region was shaved and prepared for surgery with alternating scrub wipes of iodine or chlorhexidine scrub and 70% isopropyl alcohol. […] All animals were monitored closely for 3 days. […]
To assess the activity of ROCK inhibitors in modulation of additional organ fibrosis in an in vivo setting, ROCK inhibitor was tested in a UUO model of renal fibrosis. […] The animals were sacrificed on Day 10 following surgery and the extent of fibrosis was determined by histopathological analysis of fixed kidney sections stained with Masson's trichrome. […]
The improvement in the kidney fibrosis following UUO was quantitated based on the individual image scores by a pathologist blinded to the group assignments. […]

A word on the IC50: it is the point on the concentration scale where inhibition reaches its midpoint.

Structures are written as SMILES.

Sequence of Recombinant ROCK2 (amino acids 1-552) (O75116 1-552): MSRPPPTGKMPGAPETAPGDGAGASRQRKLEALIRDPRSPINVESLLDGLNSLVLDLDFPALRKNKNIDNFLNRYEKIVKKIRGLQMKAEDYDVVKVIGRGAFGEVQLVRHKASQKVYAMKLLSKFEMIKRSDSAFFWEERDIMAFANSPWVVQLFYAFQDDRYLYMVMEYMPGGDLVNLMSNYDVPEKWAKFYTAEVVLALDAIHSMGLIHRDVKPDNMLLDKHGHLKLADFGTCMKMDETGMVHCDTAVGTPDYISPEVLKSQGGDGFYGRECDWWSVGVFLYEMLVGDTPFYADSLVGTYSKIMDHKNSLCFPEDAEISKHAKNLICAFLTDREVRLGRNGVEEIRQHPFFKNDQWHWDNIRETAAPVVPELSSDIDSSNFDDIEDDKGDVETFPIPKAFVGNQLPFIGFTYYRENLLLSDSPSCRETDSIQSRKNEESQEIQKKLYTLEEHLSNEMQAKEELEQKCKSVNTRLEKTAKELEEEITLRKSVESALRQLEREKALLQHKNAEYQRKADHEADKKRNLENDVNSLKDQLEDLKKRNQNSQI

As for `Clc1cnc(N2C3CCC2CNC3)nc1Nc1ccc2[nH]ncc2c1` [Example 192, N-(2-(3,8-diazabicyclo[3.2.1]octan-8-yl)-5-chloropyrimidin-4-yl)-1H-indazol-5-amine], the IC50 in assay [1] was 0.012 µM; in assay [2], 0.189 µM. In assay [3], the “amount of interstitial collagen in the obstructed kidney” value is listed as “significantly lower”.
